From US11534457B2, “Use of dextran sulfate” (priority 2017, dated 2022)

System: Mouse cortical neurons (Lonza)
Assay: Gene expression array and pathway analysis, cortical neurons
Format: cell-based
Settings: 0.01 mg/ml, 48 h
Method: For each cell line, n=8×25 cm^2 culture flasks were set up. Two flasks were harvested for each cell type on the day of treatment (24 hours after seeding). This represents the Day0 time point. From the remaining flasks, three flasks were treated with Control Medium and three were treated with Culture Medium (CM) containing LMW-DS to give a final concentration of 0.01 mg/ml. Cells from the treated flasks were collected after 48 hours. Therefore the collected data represent (a) untreated cells (Day0 Controls and Day2 Controls) and (b) cells treated with LMW-DS for 48 hours (Day2 LMW-DS treated).
25 cm^2 flasks were coated by adding 2 ml per flask of a solution of 50 μg/ml poly-d-lysine in Hank's balanced salt solution (HBSS) and incubating overnight at 37° C. in the dark. Flasks were washed with cell culture water and air-dried for 30 min in the dark. Flasks were coated by adding 1 ml per flask of a solution of 25 μg/ml laminin in phosphate-buffered saline (PBS) and incubating for 2 hour at 37° C. in the dark. The laminin flasks were washed with PBS three times before plating cells.
Medium was prepared by adding 10 ml B-27 Serum-Free Supplement and 2.5 ml GlutaMAX™-1 Supplement to 500 ml of Neurobasal medium. The medium was pre-warmed to 37° C. Cells from 12 vials were thawed sequentially in a 37° C. water bath for no longer than 2 min and gently transferred into a 15 ml tube. 9 ml of medium was gently added drop-wise to each. The cell suspension was mixed by inverting the tubes carefully twice.
The cells were centrifuged for 5 minutes at 200×g. Supernatant was removed (to the last 0.5 ml) and cells were gently resuspended by trituration. The cells from the 12 vials were mixed and distributed equally into the previously coated 25 cm^2 flasks (n=8). Cells were incubated at 37° C. with 5% CO2 for 24 hours.
LMW-DS was provided at a stock concentration of 20 mg/ml and was kept in a temperature monitored refrigerator at 4° C. A fresh […]LMW-DS stock (1.0 mg/ml) was prepared in sterile DMEM-F12. The concentrated drug stock was sterile filtered and added to the respective culture media (19.6 ml CM and 0.4 ml LMW-DS stock solution). The Control was made using 19.6 ml CM and 0.4 ml of DMEM-F12. LMW-DS and CM were added to the respective flasks (5 ml each) to reach the 0.01 mg/ml concentration of LMW-DS in each dish with a total of 10 ml CM each.
CM was aspirated into a clean and labelled 15 ml Falcon tube. The flasks (without culture medium) were placed into the −80° C. freezer for 30 minutes. The CM in the Falcon tubes were spun at 3000×g for 5 minutes. Supernatant was removed and the small pellet was re-suspended in 2.5 ml Trizol:Water (4:1) solution at room temperature (RT, […]).
Two aliquots of 1 ml lysate was removed from each sample and 200 μl of chloroform was added to each (0.2 ml of chloroform per 1 ml of TRIzol Reagent used during the cell lysis step) and the tube was shaken vigorously. Samples were stored at RT for 2-3 minutes and subsequently centrifuged at 12,000×g for 15 minutes at 4° C.
The expression data were downloaded into separate files for each cell line. The ‘Background corrected’ expression is the data from the “gProcessedSignal” of the arrays that is the result of the background signal extracted from the actual signal of the relevant probe. This is the most often used variable in array analysis. The background corrected signal was log 2 transformed for all samples for statistical analysis. To reduce the false discovery rate in the samples, the signals that were below ‘expression level’ were removed. The ‘below expression’ level was set at 5 for the log 2 transformed expression values.
Based on the expression pattern of the Control probes on each array it was decided to carry out Median Centering for all arrays before analysis to reduce the variability of the results. […]

Substance: low molecular weight dextran sulfate [LMW-DS]
- MMP-related genes differentially expressed: none
- cellular attachment from expression patterns (neurons): significant inhibition of cellular attachment
- downstream effector molecules of GDF7: activated
- glutamate production: dis not alter
- number of genes differentially expressed, D0 control to the D2 LMW-DS treated samples (second statement): 247 genes
- number of genes differentially expressed, D0 control vs D2 LMW-DS treated: 609 genes
- number of genes: abolished nutrient effect / no effect: 572
- number of genes: abolished nutrient effect / significant downregulation: 7
- number of genes: abolished nutrient effect / significant upregulation: 33
- number of genes: abolished nutrient effect / total: 612
- number of genes: enhanced response to nutrients / significant downregulation: 158
- number of genes: enhanced response to nutrients / significant upregulation: 43
- number of genes: enhanced response to nutrients / total: 612
- number of genes: new effect induced by LMW-DS / no effect: 19
- number of genes: new effect induced by LMW-DS / significant downregulation: 22
- number of genes: new effect induced by LMW-DS / significant upregulation: 7
- number of genes: new effect induced by LMW-DS / total: 48
- number of genes: not different from control / significant downregulation: 95
- number of genes: not different from control / significant upregulation: 221
- number of genes: not different from control / total: 316
- number of genes: total / no effect: 591
- number of genes: total / significant downregulation: 282
- number of genes: total / significant upregulation: 304
- number of genes: total / total: 1177
- oxidative-stress effects: amyloid-β and Lewy body pathology, mitochondrial dysfunction: able to prevent and reverse most of these deleterious effects
